Experimental data taken from ChEMBL document CHEMBL1201862, “PubChem BioAssay data set” (2004).
One block for each compound: values may come before it. The source made the active and inactive calls. Unless noted, the calls are words filed in the database; no cut-off is given here.

Experiments:
[1] = molecular target: T1, High affinity choline transporter 1 (Homo sapiens, UniProt Q9GZV3); experiment: CHT choline uptake inhibitors, dose response, cell-based, HEK-293 hCHT, [3H]-choline uptake (AID 652177); assay type: functional
T1 sequence (Q9GZV3 whole entry): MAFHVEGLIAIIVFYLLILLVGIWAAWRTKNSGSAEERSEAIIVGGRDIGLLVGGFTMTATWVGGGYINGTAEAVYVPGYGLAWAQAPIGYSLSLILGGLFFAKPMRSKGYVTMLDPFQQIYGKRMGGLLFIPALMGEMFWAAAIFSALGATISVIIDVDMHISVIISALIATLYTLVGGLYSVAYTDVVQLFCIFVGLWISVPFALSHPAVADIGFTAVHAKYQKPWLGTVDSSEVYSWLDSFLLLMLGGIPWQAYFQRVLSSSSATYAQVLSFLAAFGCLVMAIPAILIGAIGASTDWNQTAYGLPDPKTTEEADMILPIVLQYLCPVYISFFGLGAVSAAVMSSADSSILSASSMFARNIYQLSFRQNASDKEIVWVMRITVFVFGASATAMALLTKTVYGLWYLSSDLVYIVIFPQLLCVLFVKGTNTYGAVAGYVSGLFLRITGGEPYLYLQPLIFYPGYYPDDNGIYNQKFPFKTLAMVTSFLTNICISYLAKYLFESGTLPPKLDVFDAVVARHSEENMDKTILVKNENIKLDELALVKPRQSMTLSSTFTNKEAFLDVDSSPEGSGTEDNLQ

[2] = molecular target: Metabotropic glutamate receptor 5 (Rattus norvegicus, UniProt P31424); experiment: Identification of a glycine sulfonamide based non-MPEP site positive allosteric potentiator (PAM) of mGlu5 (calcium_assay).; assay type: functional
Metabotropic glutamate receptor 5, sequence (P31424 whole entry): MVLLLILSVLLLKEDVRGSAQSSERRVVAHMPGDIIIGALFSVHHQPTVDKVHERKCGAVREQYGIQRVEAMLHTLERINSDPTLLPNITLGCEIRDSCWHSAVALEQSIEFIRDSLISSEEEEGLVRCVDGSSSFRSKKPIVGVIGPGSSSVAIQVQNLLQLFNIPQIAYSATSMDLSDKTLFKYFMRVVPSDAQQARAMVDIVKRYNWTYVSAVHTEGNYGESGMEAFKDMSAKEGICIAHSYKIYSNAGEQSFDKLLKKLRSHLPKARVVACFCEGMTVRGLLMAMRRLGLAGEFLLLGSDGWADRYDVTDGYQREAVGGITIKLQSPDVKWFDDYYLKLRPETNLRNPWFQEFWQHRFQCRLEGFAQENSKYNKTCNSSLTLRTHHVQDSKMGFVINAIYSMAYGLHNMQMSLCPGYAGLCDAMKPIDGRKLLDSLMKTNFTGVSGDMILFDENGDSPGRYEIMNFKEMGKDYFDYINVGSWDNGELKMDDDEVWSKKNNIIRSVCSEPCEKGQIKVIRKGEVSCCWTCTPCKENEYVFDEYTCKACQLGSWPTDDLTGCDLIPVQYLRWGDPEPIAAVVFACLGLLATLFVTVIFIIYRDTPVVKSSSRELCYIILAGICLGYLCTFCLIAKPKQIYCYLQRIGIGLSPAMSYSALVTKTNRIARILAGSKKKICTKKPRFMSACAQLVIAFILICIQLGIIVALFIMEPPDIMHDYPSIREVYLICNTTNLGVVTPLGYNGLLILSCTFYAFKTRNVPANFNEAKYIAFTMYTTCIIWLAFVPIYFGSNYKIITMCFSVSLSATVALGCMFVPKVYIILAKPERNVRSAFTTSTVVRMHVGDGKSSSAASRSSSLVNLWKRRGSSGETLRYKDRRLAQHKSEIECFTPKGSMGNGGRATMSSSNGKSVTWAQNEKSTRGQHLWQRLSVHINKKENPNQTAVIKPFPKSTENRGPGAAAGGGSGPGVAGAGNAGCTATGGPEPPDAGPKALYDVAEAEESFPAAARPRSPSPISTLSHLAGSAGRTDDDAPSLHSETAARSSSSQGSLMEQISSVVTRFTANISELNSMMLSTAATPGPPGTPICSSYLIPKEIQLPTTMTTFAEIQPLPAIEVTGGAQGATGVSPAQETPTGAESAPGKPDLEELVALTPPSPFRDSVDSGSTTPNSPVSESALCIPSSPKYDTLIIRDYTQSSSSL

[3] = Keap1 Kelch-Nrf2 peptide binding inhibitors, dose response, biochemical, fluorescence polarization, dry powder, set 3 (AID 651806)
[4] = HEK293T cell cytotoxicity, dose response, cytotoxicity control, luminescence plate reader, powder samples, set 4 (AID 651863); assay type: functional, cell-based; details: HEK293
[5] = cytotoxicity in HeLa cells, dose response, cytotoxicity control, cell-based, plate reader, dry powder (AID 651946); assay type: functional
[6] = IRAP inhibitors, dose response, selectivity assay for ERAP1 modulator project, biochemical, Leu-AMC fluorescence, cherry-picked samples, set 2 (AID 743340)
[7] = molecular target: Potassium channel subfamily K member 9 (Homo sapiens, UniProt Q9NPC2); experiment: TASK3 (KCNK9) channel inhibitors, thallium flux, SAR follow-up, selectivity assay for TASK1 inhibitor project, cell-based, FluxOR thallium flux, concentration-response (AID 652211); assay type: functional;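 further: potency is for inhibitors of the channel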
Potassium channel subfamily K member 9, sequence (Q9NPC2 whole entry): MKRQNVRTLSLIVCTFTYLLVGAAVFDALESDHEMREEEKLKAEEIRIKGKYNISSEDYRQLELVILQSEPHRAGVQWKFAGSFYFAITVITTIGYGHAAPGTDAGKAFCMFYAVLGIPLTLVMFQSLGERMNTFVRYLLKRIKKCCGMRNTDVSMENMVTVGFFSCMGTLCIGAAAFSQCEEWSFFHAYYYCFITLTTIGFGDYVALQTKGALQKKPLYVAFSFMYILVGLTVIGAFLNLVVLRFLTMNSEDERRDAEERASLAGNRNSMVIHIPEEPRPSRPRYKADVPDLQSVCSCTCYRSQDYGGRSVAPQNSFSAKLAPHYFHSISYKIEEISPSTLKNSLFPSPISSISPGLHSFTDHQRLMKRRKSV

[8] = molecular target: Potassium channel subfamily K member 3 (Homo sapiens, UniProt O14649); experiment: TASK1 (KCNK3) potassium channel inhibitors, SAR follow-up, CHO cells, FluxOR thallium flux (AID 652212); assay type: functional
Potassium channel subfamily K member 3, sequence (O14649 whole entry): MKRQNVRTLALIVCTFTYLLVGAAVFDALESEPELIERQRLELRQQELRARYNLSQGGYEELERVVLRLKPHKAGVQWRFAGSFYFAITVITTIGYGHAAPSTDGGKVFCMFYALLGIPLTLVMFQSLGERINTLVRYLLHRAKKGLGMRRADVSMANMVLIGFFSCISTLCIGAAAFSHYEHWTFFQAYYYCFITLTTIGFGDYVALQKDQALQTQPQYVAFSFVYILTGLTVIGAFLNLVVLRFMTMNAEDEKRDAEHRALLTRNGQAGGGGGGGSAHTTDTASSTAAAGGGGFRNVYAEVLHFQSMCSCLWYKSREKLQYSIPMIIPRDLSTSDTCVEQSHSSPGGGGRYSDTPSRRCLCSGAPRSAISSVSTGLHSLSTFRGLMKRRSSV

[9] = molecular target: T2, Short transient receptor potential channel 4 (Mus musculus, UniProt Q9QUQ5); experiment: mouse TRPC4 channel inhibitors, dose response, cell-based, HEK293 TRPC4/mu-opioid, Fluo-4 calcium (AID 434942); assay type: functional;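 further: potency of inhibitors blocking the TRPC4 calcium response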
T2 sequence (Q9QUQ5 whole entry): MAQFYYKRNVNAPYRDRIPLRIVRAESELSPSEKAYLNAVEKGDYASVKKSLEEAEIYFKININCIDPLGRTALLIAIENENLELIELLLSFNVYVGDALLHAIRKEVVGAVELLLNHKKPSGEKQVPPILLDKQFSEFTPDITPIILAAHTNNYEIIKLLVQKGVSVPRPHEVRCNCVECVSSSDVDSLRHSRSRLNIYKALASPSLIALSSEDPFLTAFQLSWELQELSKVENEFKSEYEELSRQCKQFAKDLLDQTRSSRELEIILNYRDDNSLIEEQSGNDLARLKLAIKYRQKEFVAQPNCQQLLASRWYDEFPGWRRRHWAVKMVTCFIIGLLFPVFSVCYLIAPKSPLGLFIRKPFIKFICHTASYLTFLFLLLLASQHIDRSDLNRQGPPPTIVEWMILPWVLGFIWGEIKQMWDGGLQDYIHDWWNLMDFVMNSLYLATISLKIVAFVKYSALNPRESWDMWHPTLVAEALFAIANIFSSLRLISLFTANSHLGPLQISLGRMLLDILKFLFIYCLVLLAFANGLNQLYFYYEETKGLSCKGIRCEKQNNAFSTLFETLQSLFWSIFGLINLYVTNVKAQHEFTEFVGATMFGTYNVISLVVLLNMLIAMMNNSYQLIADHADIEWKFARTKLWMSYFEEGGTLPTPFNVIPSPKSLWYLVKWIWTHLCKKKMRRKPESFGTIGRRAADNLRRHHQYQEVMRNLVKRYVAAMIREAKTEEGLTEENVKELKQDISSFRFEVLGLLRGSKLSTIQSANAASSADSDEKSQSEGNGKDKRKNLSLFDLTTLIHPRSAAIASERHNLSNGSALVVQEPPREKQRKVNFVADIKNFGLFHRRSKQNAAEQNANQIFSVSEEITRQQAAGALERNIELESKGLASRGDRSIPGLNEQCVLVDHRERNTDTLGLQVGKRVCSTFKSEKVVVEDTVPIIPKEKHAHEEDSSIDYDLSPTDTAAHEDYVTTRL

[10] = molecular target: SWI/SNF-related matrix-associated actin-dependent regulator of chromatin subfamily A member 2 (Homo sapiens, UniProt P51531); experiment: Luminescence-based cell-based high throughput dose response assay to identify activators of the function of SWI/SNF related, matrix associated, actin dependent regulator of chromatin, subfamily a, member 2 (SMARCA2, BRM).; assay type: functional
SWI/SNF-related matrix-associated actin-dependent regulator of chromatin subfamily A member 2, sequence (P51531 whole entry): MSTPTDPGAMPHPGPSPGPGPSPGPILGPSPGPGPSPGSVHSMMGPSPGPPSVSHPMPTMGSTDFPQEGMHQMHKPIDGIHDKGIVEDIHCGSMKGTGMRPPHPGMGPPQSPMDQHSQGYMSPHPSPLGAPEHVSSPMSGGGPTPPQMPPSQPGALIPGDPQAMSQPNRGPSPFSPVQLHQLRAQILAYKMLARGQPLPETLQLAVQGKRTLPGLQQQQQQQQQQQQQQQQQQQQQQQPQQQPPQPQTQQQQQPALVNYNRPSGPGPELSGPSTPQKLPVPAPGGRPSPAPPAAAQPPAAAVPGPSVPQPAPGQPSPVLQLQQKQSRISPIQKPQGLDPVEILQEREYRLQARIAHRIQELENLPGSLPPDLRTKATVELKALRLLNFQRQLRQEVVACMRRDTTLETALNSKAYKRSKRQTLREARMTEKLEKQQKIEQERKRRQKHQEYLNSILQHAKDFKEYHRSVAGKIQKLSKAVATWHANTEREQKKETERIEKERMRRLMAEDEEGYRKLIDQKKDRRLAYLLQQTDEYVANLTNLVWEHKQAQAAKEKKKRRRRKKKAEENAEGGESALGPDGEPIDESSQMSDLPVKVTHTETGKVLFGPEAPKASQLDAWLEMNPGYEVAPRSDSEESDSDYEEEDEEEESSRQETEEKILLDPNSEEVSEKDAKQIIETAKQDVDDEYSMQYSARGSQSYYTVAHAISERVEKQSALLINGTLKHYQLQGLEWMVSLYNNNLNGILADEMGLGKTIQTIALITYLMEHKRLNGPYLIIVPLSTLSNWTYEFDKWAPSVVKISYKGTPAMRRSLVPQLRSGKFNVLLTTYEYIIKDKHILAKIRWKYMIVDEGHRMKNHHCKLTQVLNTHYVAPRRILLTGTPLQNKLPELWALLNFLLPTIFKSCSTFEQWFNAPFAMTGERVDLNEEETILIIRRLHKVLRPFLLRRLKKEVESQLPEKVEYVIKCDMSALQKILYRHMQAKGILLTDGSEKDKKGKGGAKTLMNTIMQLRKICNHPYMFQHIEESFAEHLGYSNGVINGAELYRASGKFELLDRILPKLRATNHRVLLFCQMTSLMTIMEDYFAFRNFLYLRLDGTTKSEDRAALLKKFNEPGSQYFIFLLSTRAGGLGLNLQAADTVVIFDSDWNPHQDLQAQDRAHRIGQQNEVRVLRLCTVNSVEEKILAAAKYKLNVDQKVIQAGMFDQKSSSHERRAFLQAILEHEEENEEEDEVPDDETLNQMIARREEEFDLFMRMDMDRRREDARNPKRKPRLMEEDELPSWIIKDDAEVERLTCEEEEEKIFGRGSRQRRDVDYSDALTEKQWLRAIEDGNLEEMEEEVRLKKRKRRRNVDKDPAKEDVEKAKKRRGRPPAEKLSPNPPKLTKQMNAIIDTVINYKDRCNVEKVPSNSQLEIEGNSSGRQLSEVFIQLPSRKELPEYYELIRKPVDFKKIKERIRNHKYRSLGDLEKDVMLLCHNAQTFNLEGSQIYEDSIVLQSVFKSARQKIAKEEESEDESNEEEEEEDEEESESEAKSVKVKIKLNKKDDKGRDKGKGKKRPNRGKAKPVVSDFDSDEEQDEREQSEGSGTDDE

[11] = Counterscreen for activators of the function of SWI/SNF related, matrix associated, actin dependent regulator of chromatin, subfamily a, member 2 (SMARCA2, BRM): Luminescence-based cell-based high throughput dose response assay to identify non-selective compounds using the VP16 reporter assay.; assay type: functional
[12] = molecular target: T3, DNA repair protein RAD52 homolog (Homo sapiens, UniProt P43351); assay type: functional, biochemical
T3 sequence (P43351 whole entry): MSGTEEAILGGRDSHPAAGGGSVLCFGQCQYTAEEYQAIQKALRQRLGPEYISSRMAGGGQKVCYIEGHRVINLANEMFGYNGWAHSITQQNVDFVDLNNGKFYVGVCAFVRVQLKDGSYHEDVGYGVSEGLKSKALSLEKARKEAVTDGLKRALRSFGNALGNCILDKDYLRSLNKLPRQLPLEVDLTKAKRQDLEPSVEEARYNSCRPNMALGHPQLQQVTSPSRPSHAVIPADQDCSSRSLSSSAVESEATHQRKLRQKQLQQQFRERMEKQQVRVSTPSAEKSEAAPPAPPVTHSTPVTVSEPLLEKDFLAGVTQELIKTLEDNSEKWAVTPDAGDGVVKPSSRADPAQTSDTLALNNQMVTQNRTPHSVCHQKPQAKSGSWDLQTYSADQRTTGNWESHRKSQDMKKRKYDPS

- IC50 [1]: 1.75 µM (active)
SMILES: CCn1nc(C)c(CNC(=O)c2ccc(OC)c(OC3CCN(C(C)C)CC3)c2)c1C

- EC50 [2]: 10 µM (inconclusive)
SMILES: CS(=O)(=O)N(CC(=O)N1CCc2ccccc21)c1ccccc1Cl

SMILES: O=C(O)C1CCCCC1C(=O)N1CCc2ccccc2C1CN1Cc2ccccc2C1=O (configuration not stated)
- AC50 [3]: 91.2 µM (active)
- AC50 [4]: 39.1 µM (active)

SMILES: FC(F)(F)Oc1ccccc1-c1nnc(SCc2ccccc2)o1
- AC50 [5]: > 52 µM (inactive)

SMILES: Cc1noc(C)c1S(=O)(=O)Nc1ccc2c(c1)C(=O)N([C@H](C)CO)C[C@H](C)[C@H](CN(C)Cc1ccc3c(c1)OCO3)OCCCC[C@@H](C)O2
- AC50 [6]: 15.7 µM (active)

- IC50 [7]: 0.29 µM (active)
- IC50 [8]: 0.017 µM (active)
SMILES: CCOc1ccccc1NC(=O)c1cccc(NC(=O)c2cccc(C)c2)c1

SMILES: COc1nc(NC(=N)N)nc2ccc(C)cc12
- EC50 [9]: 5.31 µM (active)
- EC50 [10]: > 3.38 µM (active)
- EC50 [11]: > 91.2 µM (inactive)
- AC50 [12]: 9.39 µM (active)
